Laboratory results taken from a melting point compilation (Tetko et al.; mined from patent text by program, amines drawn as free bases though some values may be those of a salt).

melting point	SMILES
165 °C	OC1CSC(Oc2cc(-c3cccnc3F)ccc2Cl)C(O)C1O (centres undefined)
52 to 54 °C	COC(=O)Cc1ccc(C#N)cc1C
136 to 137 °C	COC(=O)c1cncc(O)c1C(=O)OC
139 to 141 °C	Cn1nnc(CN2CCC[C@@H](OCc3cc(C(F)(F)F)cc(C(F)(F)F)c3)[C@H]2c2ccccc2)n1 (relative stereo)
210 to 213 °C	CCc1c(-c2ccc(OCc3ccccc3)cc2)c2cc(C(=O)OC)c3c(NC(C)=O)ccc1n23
212 to 214 °C	CCOC(=O)c1cn(-c2ccc(OC)cc2)c2cc(F)c(F)cc2c1=O
144 °C	COc1ccccc1N(CC(=O)OC(C)(C)C)C(=O)CN1C(=O)c2ccccc2C1=O
179 to 180 °C	CC(C)(C)OC(=O)N1CCC(N2Cc3cc(Br)ccc3C2=O)CC1
189 to 190 °C	O=C(O)c1ccc2ccc(S(=O)(=O)N(Cc3ccccc3)Cc3ccccc3)cc2c1
318 °C	CNc1nn2nnnc2c2c1CCCC2
161 to 163 °C	CCSc1nc2c(C)ccnc2n1Cc1ccc(C2(Br)CC(C#N)=CN2C)cc1 (centres undefined)
119 to 121 °C	CCCCCCc1cc(C(=O)OCC)c(-c2ccccc2)c(-c2ccccc2)c1C(=O)OCC
129 to 130 °C	COc1cccc(CNC(=O)c2nc(OC)c3ccccc3n2)c1
92 °C	O=C(c1ccc(-c2ccc(CBr)cc2)cc1)c1ccc(Cl)cc1Cl
174 to 175 °C	COCCOc1cc(N(C)S(=O)(=O)c2nccn2C)c2[nH]c(C(=O)O)cc2c1
58 to 59 °C	CC(CO)c1ccc(-c2ccc(F)cc2F)c(F)c1 (centres undefined)
56 to 58 °C	O=C(C(=Cc1cccc(C(F)(F)F)c1)C(=O)C1CC1)C1CC1
> 360 °C	O=C1C(Br)=CC2(C=C1Br)CCNC1=C2C2=NCCc3c[nH]c(c32)C1=O
95 to 97 °C	COc1ccc(COC(=O)N[C@@H](CC(N)=O)C(=O)N[C@@H](Cc2ccccc2)[C@H](O)C(=O)N2CCC[C@H]2C(=O)NC(C)(C)C)cc1
182 to 183 °C	O=C(O)C1c2ccccc2COc2ccc(Cl)cc21 (centres undefined)
160 to 163 °C	CN1C(=O)c2cccc(S(=O)(=O)NC(C)(C)C)c2C1=O
113 to 114 °C	O=C(OCC1CCN(CC2CSc3ccc(F)cc3C2)CC1)c1ccc(F)cc1 (centres undefined)

melting point	SMILES
103 °C	CC(C)(C)C(=O)C(Oc1ccc(Cl)cc1)c1ccccc1 (centres undefined)
177 to 178 °C	COc1cc2ncnc(N3CCN(C(=O)NCCc4ccc(Cl)cc4)CC3)c2cc1OC
124 to 125 °C	COCOCc1nc(-c2ccccc2)oc1CCc1ccc(OCc2nc(-c3ccccc3)oc2C)cc1
54 to 56 °C	O=C=Nc1ccc(Cl)cc1[N+](=O)[O-]
245 to 248 °C	O=C(Nc1cccc(F)c1)NC1CCN(S(=O)(=O)c2ccc(Cl)cc2)CC1
72 to 74 °C	O=C1OC(=O)c2cnccc21
187 to 191 °C	O=C1Cc2cccc(Oc3ccccn3)c2N1
117 to 119 °C	CCOC(=O)Cc1c(COC(C)=O)[nH]c(C(=O)OCc2ccccc2)c1C
203 to 205 °C	N#CNC(=NCCN)NC1CCCC(c2csc(NC(=N)N)n2)C1 (centres undefined)
196 to 197 °C	N#Cc1ccc(N(Cc2ccc(O)c(Cl)c2)n2cnnc2)cc1-c1cc2ccccc2o1
126 to 127 °C	CCCCc1ccc(-c2nc3c(s2)C(=O)C(NCCN(C)C)=CC3=O)cc1
258 °C	FC(F)(F)c1cc(-c2ccc(Cl)cc2)nc(-n2cnc(I)c2)n1
106 to 107 °C	N#Cn1c(=O)c2ccccc2n(CCCCN2CCC(OC(c3ccccc3)c3ccccc3)CC2)c1=O
169 to 170 °C	COc1cccc2c(N(C)c3ccccc3)nc(N(C)c3ccccc3)nc12
140 °C	O=C(Cl)c1cc(Cl)cc2c1OCCO2
181 to 183 °C	COc1ccc(Cl)cc1C(=O)NC1COc2cc(OC)c(S(=O)(=O)NC(=O)NC(C)C)cc2C1 (centres undefined)
73 to 76 °C	CC(C)CCOCC(O)C(CC(C)C)NC(=O)C(Cc1c[nH]cn1)NC(=O)C(CC(=O)NCCc1ccccc1)Cc1cccc2ccccc12 (mixture of isomers)
163 °C	CC(=O)C1CCC2C3CCC4CC(O)C(N5CCOC(C)(C)C5)CC4(C)C3C(=O)CC12C (centres undefined)
104 to 105 °C	CC(=O)OCC1OC(OCC(C)=CCN2C(=O)c3ccccc3C2=O)C(OC(C)=O)C(OC(C)=O)C1OC(C)=O (centres undefined)
106 to 108 °C	O=C(c1ccc2nonc2c1)N1CC2C=CC1C2 (centres undefined)
< 30 °C	CCCOCCCCCCCCCC(=O)O
139 to 141 °C	CCOC(=O)c1cccc2c1Nc1ccc(C(=O)c3ccccc3)cc1N2C

melting point	SMILES
235 to 242 °C	COc1cc2nc(N)nc(-c3cccc(I)c3)c2cc1OC
106 to 110 °C	CCC1(C)Cc2c(C)c(N3CCN(c4ccc(OC)cc4)CC3)c(C)c(C)c2O1 (centres undefined)
140 to 142 °C	CS(=O)(=O)c1ccc(-c2cc(C(F)(F)F)nn2-c2ccc(C#N)cc2)cc1
82 to 84 °C	CC(=O)c1c(F)ccc(NC2OC(=O)CC(=O)O2)c1F
42 to 46 °C	[N-]=[N+]=N[C@H]1CC[C@@H](NC(=O)OCc2ccccc2)CC1
273 to 275 °C	O=c1[nH]c2ccccc2c2cc(CC(=S)N3CCOCC3)nn12
225 to 226 °C	NC(=NO)c1ccc2c(c1)nc(-c1ccc(OCc3ccccc3)cc1)n2C1CCCC1
191 °C	Cc1cc(C(=O)O)c(S(N)(=O)=O)o1
144 to 146 °C	COc1cc(N)ccc1C(=O)O
120 to 121 °C	Cc1ncnc(O)c1C
98 to 99 °C	CC(C)(C)OC(=O)n1cccc1-c1ccc(C[C@H](NC(=O)c2c(Cl)cccc2Cl)C(=O)O)cc1
127 to 129 °C	CCc1nn2ccc3oc(C)cc3c2c1CO
270 °C	Cc1cc(-c2nnc3c4ccccc4c(OCc4ccnn4C)nn23)no1
154 to 156 °C	Cc1ccc(Sc2ccc3c(c2)CC[C@H]2N(C)C(=O)CC[C@]32C)cc1
137 to 138 °C	CCCCOc1ccc(C(C)N(O)C(N)=O)cc1 (centres undefined)
132 to 133 °C	Oc1ccc(-c2noc(C3(COc4c(F)cccc4OC(F)(F)F)CC3)c2-c2ccccc2)cc1
81 to 83 °C	CCCCCCCCCCCCCCCCCCNCC(O)CO (centres undefined)
114 to 116 °C	CC(=O)NCC1CN(c2ccc(N3CCC(C)(O)C(C)(C)C3)c(F)c2)C(=O)O1 (centres undefined)
104 to 106 °C	CCCC=Cc1c(C(C)C)nc(C(C)C)c(C(=O)OCC)c1-c1ccc(-c2ccccc2)cc1
164 to 166 °C	CC(=O)OCC1CCCn2c(c(C3=C(c4cn(C)c5ccccc45)C(=O)OC3=O)c3ccccc32)C1 (centres undefined)

SMILES	melting point
CN(C)CCSC1=Nc2ccc(Br)cc2C(c2ccccc2F)=NC1	105 to 108 °C
CCOC(=O)C1=CC(C(=O)c2ccccc2O)=CN2CCc3c([nH]c4ccccc34)C12C(=O)OCC (centres undefined)	209 °C
CC(C)(C)CCN1C(=O)C(NC(=O)Nc2ccccc2)C(=O)N(c2ccccc2F)c2ccccc21 (centres undefined)	271 to 272 °C
Oc1cccc(CCN2CCCC2)c1	99 to 102 °C
FC(F)(F)c1ccc2c(c1)N(CC1CN3CCC1CC3)c1ccccc1S2 (centres undefined)	150 °C
